# Laboratory results published in publication PMC6831628, “Steady-state activation of the high-affinity isoform of the α4β2δ GABAA receptor” (Scientific Reports, 2019).
# Values joined by “and” are separate entries in the source; they are usually repeats but may differ in a detail not shown here. Identical values can stand only once. Like-named read-outs stand apart in the source and are kept apart here.
# How the values were obtained:
# [1] = molecular target: T1, human α4β2δ GABAA receptors (Homo sapiens, UniProt P47870+P48169); assay: two-electrode voltage clamp of α4β2δ GABAA receptors expressed in Xenopus laevis oocytes (RAD model analysis); assay type: cell-based; conditions: for EC50: Hill equation; for EC50 / Hill coefficient: mean ± S.D.; for Q (=A/D), equilibrium between active and desensitized states: steady-state currents fitted to Eq. (2), K and c constrained to peak values; for maximal peak open probability (POpen,peak): theoretical/predicted maximum from L, c and N; for calculated steady-state POpen: Eq. (4); for contribution towards stabilization of the open state: N×RT×ln(c), GABA 2 sites, propofol 4 sites
# T1 construct: expressed in transfected cells; host or cells: Xenopus laevis oocytes injected with cRNA, 5:1:5 (α4:β2:δ)
# Protocol: The human α4β2δ GABAA receptors were expressed in Xenopus laevis oocytes. Harvesting of oocytes was conducted under the Guide for the Care and Use of Laboratory Animals as adopted and promulgated by the National Institutes of Health. The animal protocol was approved by the Animal Studies Committee of Washington University in St. Louis (Approval No. 20170071).
# The cDNAs of individual subunits in the pcDNA3 vector were linearized with Xba I (NEB Labs, Ipswich, MA). The cRNAs were generated using mMessage mMachine (Ambion, Austin, TX). The oocytes were injected with a total of 11 ng cRNA per oocyte in a 5:1:5 (α4:β2:δ) ratio. Following injection, the oocytes were incubated in bath solution (96 mM NaCl, 2 mM KCl, 1.8 mM CaCl2, 1 mM MgCl2, and 5 mM HEPES; pH 7.4) plus supplements (2.5 mM Na pyruvate, 100 U/ml penicillin, 100 μg/ml streptomycin, and 50 μg/ml gentamycin) at 15 °C for 3–4 days prior to conducting electrophysiological recordings.
# The recordings were conducted at room temperature using standard two-electrode voltage clamp. The pipets were filled with 3 M KCl. The oocytes were clamped at −60 mV. The chamber (RC-1Z, Warner Instruments, Hamden, CT) was perfused with bath solution (see above) at 5–8 ml/min. Solutions were gravity-applied from 30-ml glass syringes with glass luer slips via Teflon tubing, and switched manually.
# The current responses were amplified with an Axoclamp 900A (Molecular Devices, Sunnyvale, CA) or OC-725C amplifier (Warner Instruments, Hamden, CT), digitized with a Digidata 1320 or 1200 series digitizer (Molecular Devices), and stored using pClamp (Molecular Devices).
# In such cases, the number of cell provided is given as a range of cell numbers for each concentration point. […] The level of constitutive activity was determined by exposing the cells to 100–300 μM picrotoxin.
# The current traces were analyzed using Clampfit (Molecular Devices) to determine the amplitudes of peak and steady-state responses. If steady-state (defined as ΔI < 2% during the last 20 s of agonist application) was not reached by the end of the agonist application, an estimate was made by exponential fitting of the current decay. Fitting was done using pClamp, to a single exponential or sums of up to three exponentials. The constant offset is reported as the steady-state response.
# [2] = test system: receptors resulting from the expression of α4, β (β2 or β3), and δ subunits; conditions: cited from earlier work
# α1β2γ2L GABAA receptor = conditions: cited from earlier work
# α4β3δ receptors = conditions: oocytes, cited from earlier work
# [3] = molecular target: T2, α4β2δ receptor with β2(Y205S) mutation (Homo sapiens, UniProt P47870+P48169, Y229S); assay: activation of α4β2δ receptor carrying the β2(Y205S) mutation; assay type: cell-based; conditions: data not shown
# T2 construct: expressed in transfected cells; host or cells: Xenopus laevis oocytes (inferred from the Methods on α4β2δ)
# [4] = molecular target: α1β2γ2L receptor with β2(Y205S) mutation (Homo sapiens, UniProt P14867+P47870, Y229S); assay: activation of α1β2γ2L receptor carrying the β2(Y205S) mutation; assay type: cell-based; conditions: data not shown
# [5] = peak currents fitted to Eq. (1)
# T1 sequence (P48169 36-554): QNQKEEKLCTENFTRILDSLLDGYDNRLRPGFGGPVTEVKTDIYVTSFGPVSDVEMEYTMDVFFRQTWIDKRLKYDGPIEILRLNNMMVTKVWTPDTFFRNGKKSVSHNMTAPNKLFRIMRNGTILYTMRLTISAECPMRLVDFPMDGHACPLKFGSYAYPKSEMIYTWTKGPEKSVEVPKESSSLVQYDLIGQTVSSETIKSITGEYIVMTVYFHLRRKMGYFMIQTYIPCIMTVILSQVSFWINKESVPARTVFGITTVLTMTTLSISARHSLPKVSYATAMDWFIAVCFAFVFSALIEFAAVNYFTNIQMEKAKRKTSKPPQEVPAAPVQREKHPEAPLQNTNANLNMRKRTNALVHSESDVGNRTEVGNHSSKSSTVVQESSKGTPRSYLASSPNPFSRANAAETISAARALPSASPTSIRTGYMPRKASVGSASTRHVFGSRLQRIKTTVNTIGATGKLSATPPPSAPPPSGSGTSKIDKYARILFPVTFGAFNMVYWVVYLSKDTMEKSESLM
# T1 sequence (P47870 25-512 limits assumed): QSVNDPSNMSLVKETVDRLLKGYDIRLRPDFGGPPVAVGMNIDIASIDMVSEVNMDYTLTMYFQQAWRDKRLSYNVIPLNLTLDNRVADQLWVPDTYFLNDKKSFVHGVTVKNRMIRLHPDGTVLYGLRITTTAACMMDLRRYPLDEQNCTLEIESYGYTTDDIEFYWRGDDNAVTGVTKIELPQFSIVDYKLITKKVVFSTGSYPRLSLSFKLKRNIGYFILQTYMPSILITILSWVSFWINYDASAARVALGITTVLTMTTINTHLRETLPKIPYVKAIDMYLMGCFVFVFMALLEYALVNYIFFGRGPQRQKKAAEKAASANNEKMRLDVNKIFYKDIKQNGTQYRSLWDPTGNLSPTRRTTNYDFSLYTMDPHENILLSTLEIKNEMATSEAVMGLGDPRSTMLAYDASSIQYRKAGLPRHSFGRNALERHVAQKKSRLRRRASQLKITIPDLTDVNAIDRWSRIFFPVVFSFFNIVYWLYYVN
# T1 sequence (O14764 25-452 partner): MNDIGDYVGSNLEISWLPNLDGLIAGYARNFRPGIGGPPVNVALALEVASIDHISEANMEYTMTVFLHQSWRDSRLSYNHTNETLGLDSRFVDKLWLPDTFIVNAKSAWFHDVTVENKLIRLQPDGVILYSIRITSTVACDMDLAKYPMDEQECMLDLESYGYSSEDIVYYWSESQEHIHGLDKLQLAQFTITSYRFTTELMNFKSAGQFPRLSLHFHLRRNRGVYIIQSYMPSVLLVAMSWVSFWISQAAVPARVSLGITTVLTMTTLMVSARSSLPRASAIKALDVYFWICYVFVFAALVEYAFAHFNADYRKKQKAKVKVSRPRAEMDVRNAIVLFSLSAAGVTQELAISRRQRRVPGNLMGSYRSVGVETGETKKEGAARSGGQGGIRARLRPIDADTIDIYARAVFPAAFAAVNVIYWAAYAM
# Sequence of α1β2γ2L receptor with β2(Y205S) mutation (P14867 28-456): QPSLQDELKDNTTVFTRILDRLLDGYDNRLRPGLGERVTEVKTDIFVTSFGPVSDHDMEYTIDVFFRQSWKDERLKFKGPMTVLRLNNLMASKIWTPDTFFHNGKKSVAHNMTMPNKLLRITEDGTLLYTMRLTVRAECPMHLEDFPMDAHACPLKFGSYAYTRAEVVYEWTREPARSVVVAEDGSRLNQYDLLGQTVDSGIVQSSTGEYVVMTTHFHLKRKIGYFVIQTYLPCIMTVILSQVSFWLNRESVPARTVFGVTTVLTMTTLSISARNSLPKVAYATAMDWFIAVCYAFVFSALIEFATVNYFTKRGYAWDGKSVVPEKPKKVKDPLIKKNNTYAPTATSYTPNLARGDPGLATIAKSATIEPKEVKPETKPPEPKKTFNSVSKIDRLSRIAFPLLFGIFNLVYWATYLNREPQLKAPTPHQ
# Sequence of α1β2γ2L receptor with β2(Y205S) mutation (P47870 25-512 Y229S limits assumed): as the sequence (P47870 25-512 limits assumed) above, with Y205S counted along it
# Sequence of α1β2γ2L receptor with β2(Y205S) mutation (P18507 40-475 partner): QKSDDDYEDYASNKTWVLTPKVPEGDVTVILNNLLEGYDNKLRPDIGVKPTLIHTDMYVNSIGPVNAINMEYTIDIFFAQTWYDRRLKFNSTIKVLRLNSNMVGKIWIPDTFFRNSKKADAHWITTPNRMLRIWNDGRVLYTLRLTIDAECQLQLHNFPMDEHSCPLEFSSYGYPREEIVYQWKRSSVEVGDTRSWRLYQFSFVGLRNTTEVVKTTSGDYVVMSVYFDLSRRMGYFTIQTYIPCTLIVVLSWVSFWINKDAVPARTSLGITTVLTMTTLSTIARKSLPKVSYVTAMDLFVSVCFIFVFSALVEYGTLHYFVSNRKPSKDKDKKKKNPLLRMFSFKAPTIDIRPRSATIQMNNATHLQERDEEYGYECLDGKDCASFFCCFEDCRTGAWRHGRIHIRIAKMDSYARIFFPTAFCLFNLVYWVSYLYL
# T2 sequence (P48169 36-554): as the sequence (P48169 36-554) above
# T2 sequence (P47870 25-512 Y229S limits assumed): as the sequence (P47870 25-512 limits assumed) above, with Y205S counted along it
# T2 sequence (O14764 25-452 partner): as the sequence (O14764 25-452 partner) above
molecule,measurement,setting,value
"CC(=O)[C@H]1CC[C@H]2[C@@H]3CC[C@H]4C[C@H](O)CC[C@]4(C)[C@H]3CC[C@]12C [3α5αP, allopregnanolone]",Kd,[1],0.21 ± 0.04 µM
same,EC50,"[1]; EC50, peak currents",0.23 ± 0.1 µM
same,"cX, ratio of equilibrium dissociation constant of the open receptor to KX",[1]; [5],0.68 ± 0.01
same,Hill coefficient,[1]; peak currents,1.17 ± 0.30
same,"Q (=A/D), equilibrium between active and desensitized states",[1],0.89 ± 0.33 and 0.89
same,"maximal peak open probability (POpen,peak)",[1],~ 0.2
same,"maximal peak open probability (POpen,peak)",[1]; listed as allopregnanolone,0.2
O=C(Nc1c(-c2cccs2)nc2ccccn12)c1ccc(Cl)cc1 [DS-2],direct activation,[1]; isoform investigated in the present study,directly activated
same,effect of DS-2,[2]; high-affinity isoform,directly activated
same,effect of DS2,[2]; low-affinity isoform,potentiated but not directly activated
NCCCC(=O)O [GABA],calculated steady-state POpen,[1]; 30 nM GABA,0.24
same,open probability (peak),"[1]; 0.3 μM GABA, relative to PTX (0) and 10 μM GABA + 50 μM propofol (1)",0.35 ± 0.09
same,contribution towards stabilization of the open state,[1],0.94 kcal/mol
same,Hill coefficient,[1]; peak currents,0.80 ± 0.09
same,"steady-state open probability (POpen,S.S.)",[1]; saturating GABA,~0.3
same,"Q (=A/D), equilibrium between active and desensitized states",[1],0.78 ± 0.08 and 0.78
same,"maximal peak open probability (POpen,peak)",[1],0.44 and 0.42 and 0.4 and ~ 0.4
same,stabilization energy from binding of two GABA molecules,α1β2γ2L GABAA receptor,6.4 to 7.5 kcal/mol
O=c1[nH]oc2c1CCNC2 [THIP],EC50,α4β3δ receptors; read-out: high-affinity component of concentration-response curve,< 0.1 µM
same,EC50,α4β3δ receptors; read-out: low-affinity component of concentration-response curve,> 10 µM
CC(C)c1cccc(C(C)C)c1O [propofol],"predicted POpen,S.S. after addition of propofol","[1]; 1 μM propofol added to 30 nM GABA, 10 μM taurine, 30 nM 3α5αP, 0.1 μM PS",0.28
same,peak response to 0.3 μM GABA with coapplied propofol,"[1]; 1 μM propofol, peak response",151 ± 12 % of control
same,steady-state response to 0.3 μM GABA with propofol,"[1]; 1 μM propofol, steady-state response",145 ± 14 % of control
same,EC50,"[1]; EC50, peak currents",7.3 ± 2 µM
same,Kd,"[1]; KX, equilibrium dissociation constant of the resting receptor, peak currents fitted to Eq. (1), best-fit ± S.E. of the fit",55.1 µM and > 50 µM
same,contribution towards stabilization of the open state,[1],4.3 kcal/mol
same,"cX, ratio of equilibrium dissociation constant of the open receptor to KX",[1]; [5],0.16 ± 0.01
same,Hill coefficient,[1]; peak currents,2.17 ± 0.65
same,"Q (=A/D), equilibrium between active and desensitized states",[1],1.29 ± 0.14 and 1.29
same,"maximal peak open probability (POpen,peak)",[1],0.99 and ~ 0.99
"NCCS(=O)(=O)O [taurine, 2-aminoethanesulfonic acid]",calculated steady-state POpen,[1]; 10 μM taurine,0.21
same,"Q (=A/D), calculated value",[1]; calculated from steady-state open probability with 1 mM taurine,0.52
same,steady-state open probability,[1]; long (190–410 s) applications of 1 mM taurine,0.23 ± 0.04
same,"cX, ratio of equilibrium dissociation constant of the open receptor to KX",[1]; [5],0.47 ± 0.02
same,Kd,"[1]; peak currents fitted to Eq. (1), best-fit ± S.E. of the fit, read-out: KX, equilibrium dissociation constant of the resting receptor",10 ± 2.1 µM
same,EC50,"[1]; peak currents, read-out: EC50",9.8 µM and 10 µM
same,Hill coefficient,[1]; peak currents,0.70 ± 0.08
same,"maximal peak open probability (POpen,peak)",[1],0.44 and 0.4 and ~ 0.4
same,activation by taurine,[3],< 0.2 % of the response to GABA + propofol
same,activation by taurine,[4],< 0.2 % of the response to GABA + propofol
pregnenolone sulfate [PS],"dPS, ratio of equilibrium dissociation constant of the desensitized receptor to KPS","[1]; fit to Eq. (3), 0.3 μM GABA, 1 site",0.14 ± 0.02
same,high concentration asymptote,[1]; steady-state current elicited by 0.3 μM GABA,50 ± 4 % of control
same,dPS,α1β2γ2L GABAA receptor,0.11
same,Kd,α1β2γ2L GABAA receptor; read-out: KPS,1.9 µM
